The text below walks through data of publication PMC6437697 (Journal of Medicinal Chemistry, 2019).

Assay in all cases: KINOMEscan
What all share (type): binding
Holding throughout (details): read-out: % control activity remaining

Experiment [1] deals with T1, CDK5 (Homo sapiens, UniProt Q00535).
T1 construct: purchased Eurofins DiscoverX KINOMEscan

Experiment [2] deals with T2, ERBB2 (Homo sapiens, UniProt P04626).
T2 construct: purchased Eurofins DiscoverX KINOMEscan

The target in experiment [3] is T3, FLT4 (Homo sapiens, UniProt P35916).
T3 construct: purchased Eurofins DiscoverX KINOMEscan

For experiment [4], the target named is T4, JAK2(JH1domain-catalytic) (Homo sapiens, UniProt O60674).
T4 construct: JAK2(JH1domain-catalytic); purchased Eurofins DiscoverX KINOMEscan
T4 sequence (O60674 849-1132 limits assumed): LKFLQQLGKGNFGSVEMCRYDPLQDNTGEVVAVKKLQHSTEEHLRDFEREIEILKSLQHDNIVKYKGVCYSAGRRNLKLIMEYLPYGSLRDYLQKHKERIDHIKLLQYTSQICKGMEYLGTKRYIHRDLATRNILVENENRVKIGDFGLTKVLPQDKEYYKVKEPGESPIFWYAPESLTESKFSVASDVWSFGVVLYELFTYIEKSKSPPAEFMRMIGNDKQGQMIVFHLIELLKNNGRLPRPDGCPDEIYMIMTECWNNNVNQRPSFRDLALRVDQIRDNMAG

Experiment [5] concerns the target T5, MAP3K2 (Homo sapiens, UniProt Q9Y2U5).
T5 construct: purchased Eurofins DiscoverX KINOMEscan
T5 sequence (Q9Y2U5 1-619): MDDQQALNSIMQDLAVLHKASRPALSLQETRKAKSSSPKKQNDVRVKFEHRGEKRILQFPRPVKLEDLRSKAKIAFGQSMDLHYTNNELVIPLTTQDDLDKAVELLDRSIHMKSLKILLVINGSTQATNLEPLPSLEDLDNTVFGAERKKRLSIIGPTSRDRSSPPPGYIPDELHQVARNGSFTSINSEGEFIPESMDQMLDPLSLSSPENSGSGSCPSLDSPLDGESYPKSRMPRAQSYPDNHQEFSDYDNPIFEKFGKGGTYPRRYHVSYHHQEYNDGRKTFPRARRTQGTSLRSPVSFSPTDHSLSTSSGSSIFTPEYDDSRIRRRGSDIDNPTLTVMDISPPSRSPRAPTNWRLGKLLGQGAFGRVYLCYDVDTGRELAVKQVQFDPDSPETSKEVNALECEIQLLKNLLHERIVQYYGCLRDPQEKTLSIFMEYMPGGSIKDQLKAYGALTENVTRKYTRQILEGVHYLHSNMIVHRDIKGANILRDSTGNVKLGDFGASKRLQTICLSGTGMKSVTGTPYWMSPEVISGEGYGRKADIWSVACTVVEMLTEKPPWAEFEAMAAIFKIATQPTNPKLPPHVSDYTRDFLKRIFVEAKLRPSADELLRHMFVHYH

Experiment [6] deals with T6, NEK1 (Homo sapiens, UniProt Q96PY6).
T6 construct: purchased Eurofins DiscoverX KINOMEscan
T6 sequence (Q96PY6 1-1258): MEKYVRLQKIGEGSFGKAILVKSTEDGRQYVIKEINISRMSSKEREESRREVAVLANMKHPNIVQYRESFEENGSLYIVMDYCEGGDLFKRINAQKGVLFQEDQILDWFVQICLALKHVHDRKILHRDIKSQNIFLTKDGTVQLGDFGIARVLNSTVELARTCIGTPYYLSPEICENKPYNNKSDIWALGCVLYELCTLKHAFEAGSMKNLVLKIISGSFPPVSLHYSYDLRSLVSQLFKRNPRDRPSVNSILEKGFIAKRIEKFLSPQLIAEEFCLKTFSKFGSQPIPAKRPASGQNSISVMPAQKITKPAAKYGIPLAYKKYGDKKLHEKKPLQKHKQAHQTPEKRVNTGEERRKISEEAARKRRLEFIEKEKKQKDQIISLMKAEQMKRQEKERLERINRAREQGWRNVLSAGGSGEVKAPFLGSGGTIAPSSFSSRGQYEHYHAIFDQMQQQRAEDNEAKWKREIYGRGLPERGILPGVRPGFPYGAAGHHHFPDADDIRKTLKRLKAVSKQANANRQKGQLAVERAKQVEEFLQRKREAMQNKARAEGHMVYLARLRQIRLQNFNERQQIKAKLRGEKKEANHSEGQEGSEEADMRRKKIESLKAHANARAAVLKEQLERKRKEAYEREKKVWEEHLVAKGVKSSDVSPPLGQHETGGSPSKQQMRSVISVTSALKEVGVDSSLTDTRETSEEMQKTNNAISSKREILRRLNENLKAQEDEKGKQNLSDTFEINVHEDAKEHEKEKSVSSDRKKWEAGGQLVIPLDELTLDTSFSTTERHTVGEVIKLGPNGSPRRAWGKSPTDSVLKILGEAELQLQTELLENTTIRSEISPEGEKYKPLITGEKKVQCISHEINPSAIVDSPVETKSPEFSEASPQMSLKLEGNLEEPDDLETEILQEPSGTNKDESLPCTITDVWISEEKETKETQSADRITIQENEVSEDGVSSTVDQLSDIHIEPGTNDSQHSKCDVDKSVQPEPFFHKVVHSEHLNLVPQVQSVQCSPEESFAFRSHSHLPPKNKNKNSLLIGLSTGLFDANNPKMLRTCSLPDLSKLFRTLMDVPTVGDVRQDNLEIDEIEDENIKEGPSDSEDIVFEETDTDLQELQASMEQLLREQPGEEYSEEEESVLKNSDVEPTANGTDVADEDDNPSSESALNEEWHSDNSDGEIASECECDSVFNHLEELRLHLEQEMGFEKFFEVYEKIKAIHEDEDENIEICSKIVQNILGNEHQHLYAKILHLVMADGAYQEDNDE

The target of experiment [7] is T7, PFTK1 (Homo sapiens, UniProt O94921).
T7 construct: purchased Eurofins DiscoverX KINOMEscan
T7 sequence (O94921 whole entry): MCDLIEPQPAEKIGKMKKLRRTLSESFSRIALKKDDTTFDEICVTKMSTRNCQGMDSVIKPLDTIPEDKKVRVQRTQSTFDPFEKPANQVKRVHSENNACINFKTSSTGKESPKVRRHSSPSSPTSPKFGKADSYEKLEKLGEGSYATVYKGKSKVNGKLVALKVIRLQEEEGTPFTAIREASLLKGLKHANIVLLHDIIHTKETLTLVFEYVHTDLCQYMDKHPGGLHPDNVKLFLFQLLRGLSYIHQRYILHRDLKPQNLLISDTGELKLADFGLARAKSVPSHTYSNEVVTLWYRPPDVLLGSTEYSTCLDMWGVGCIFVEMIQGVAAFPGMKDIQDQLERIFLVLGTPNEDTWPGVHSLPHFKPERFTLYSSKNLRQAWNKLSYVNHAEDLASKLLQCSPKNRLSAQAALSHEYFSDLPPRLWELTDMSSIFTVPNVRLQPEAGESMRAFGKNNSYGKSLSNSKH

The target in experiment [8] is T8, PIK3C2B (Homo sapiens, UniProt O00750).
T8 construct: purchased Eurofins DiscoverX KINOMEscan
T8 sequence (O00750 whole entry): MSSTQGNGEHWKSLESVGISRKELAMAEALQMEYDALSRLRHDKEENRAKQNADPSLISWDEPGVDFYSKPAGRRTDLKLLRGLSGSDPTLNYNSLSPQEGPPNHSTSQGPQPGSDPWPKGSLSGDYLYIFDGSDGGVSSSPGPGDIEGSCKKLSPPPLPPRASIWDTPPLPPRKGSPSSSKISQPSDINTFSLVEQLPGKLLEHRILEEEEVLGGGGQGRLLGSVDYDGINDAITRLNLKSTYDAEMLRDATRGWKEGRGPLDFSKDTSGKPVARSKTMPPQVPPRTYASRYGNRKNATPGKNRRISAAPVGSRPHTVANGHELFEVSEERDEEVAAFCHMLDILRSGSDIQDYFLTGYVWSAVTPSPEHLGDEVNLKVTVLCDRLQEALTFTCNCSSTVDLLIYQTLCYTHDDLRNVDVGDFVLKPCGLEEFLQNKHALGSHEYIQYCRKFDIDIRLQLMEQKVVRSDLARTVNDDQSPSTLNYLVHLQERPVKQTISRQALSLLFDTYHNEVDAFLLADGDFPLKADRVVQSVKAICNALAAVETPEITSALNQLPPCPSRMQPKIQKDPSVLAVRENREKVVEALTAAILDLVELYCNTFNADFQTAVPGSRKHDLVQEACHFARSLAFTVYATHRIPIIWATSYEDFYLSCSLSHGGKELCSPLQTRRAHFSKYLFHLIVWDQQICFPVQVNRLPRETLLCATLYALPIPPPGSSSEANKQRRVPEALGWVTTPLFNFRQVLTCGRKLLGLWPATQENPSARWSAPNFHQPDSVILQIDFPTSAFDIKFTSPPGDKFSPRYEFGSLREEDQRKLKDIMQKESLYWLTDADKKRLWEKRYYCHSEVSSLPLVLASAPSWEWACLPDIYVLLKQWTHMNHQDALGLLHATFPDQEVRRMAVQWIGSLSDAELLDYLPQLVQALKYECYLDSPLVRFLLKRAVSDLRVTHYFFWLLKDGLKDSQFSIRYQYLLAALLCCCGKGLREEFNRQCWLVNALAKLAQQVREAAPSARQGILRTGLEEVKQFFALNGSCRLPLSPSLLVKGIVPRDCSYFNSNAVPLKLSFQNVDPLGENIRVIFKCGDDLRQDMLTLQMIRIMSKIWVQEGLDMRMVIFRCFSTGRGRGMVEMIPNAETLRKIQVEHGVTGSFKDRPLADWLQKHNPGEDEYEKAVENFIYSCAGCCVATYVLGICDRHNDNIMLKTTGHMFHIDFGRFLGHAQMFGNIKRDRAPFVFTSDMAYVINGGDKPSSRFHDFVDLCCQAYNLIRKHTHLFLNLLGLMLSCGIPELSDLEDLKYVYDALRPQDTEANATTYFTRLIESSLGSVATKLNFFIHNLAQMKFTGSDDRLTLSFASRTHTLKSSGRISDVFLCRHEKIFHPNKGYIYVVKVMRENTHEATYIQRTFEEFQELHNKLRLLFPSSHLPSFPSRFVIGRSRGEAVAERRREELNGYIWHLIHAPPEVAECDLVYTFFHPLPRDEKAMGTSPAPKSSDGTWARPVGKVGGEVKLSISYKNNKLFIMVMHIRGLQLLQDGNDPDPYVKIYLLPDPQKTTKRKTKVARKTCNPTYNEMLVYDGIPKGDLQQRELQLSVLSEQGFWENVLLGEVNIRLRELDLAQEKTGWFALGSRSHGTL

Experiment [9] deals with T9, TRKA (Homo sapiens, UniProt P04629).
T9 construct: purchased Eurofins DiscoverX KINOMEscan
T9 sequence (P04629 33-796): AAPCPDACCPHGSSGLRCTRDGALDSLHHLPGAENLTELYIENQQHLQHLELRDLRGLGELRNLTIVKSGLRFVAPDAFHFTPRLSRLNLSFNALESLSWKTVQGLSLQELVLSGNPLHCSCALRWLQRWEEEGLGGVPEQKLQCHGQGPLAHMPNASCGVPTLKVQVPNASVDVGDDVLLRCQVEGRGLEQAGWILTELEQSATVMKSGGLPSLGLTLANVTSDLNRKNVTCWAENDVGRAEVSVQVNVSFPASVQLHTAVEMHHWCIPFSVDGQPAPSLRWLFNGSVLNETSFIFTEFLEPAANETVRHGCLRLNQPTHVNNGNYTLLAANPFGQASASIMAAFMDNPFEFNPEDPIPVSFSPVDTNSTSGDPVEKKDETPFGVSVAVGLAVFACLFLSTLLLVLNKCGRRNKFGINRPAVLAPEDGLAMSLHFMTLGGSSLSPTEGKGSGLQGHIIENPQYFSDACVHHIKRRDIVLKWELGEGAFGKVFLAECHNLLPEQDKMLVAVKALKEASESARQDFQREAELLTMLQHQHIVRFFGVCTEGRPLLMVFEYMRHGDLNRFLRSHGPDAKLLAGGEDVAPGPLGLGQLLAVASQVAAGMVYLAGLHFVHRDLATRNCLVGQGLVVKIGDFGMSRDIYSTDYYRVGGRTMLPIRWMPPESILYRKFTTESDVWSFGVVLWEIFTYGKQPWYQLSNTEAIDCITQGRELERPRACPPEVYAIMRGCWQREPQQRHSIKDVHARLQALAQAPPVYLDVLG

Experiment [10] has as its target T10, TSSK1B (Homo sapiens, UniProt Q9BXA7).
T10 construct: purchased Eurofins DiscoverX KINOMEscan
T10 sequence (Q9BXA7 1-367): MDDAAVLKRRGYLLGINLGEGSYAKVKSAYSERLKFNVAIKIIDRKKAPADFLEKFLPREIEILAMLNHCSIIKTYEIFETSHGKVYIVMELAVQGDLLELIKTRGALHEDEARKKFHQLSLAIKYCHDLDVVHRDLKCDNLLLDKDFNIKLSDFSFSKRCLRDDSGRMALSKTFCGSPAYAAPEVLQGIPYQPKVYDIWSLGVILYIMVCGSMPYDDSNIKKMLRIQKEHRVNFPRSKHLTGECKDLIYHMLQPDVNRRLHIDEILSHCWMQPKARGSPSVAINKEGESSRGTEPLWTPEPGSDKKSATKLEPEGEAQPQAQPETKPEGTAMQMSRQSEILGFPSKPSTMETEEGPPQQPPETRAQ

T2 sequence (P04626 23-1255 limits assumed): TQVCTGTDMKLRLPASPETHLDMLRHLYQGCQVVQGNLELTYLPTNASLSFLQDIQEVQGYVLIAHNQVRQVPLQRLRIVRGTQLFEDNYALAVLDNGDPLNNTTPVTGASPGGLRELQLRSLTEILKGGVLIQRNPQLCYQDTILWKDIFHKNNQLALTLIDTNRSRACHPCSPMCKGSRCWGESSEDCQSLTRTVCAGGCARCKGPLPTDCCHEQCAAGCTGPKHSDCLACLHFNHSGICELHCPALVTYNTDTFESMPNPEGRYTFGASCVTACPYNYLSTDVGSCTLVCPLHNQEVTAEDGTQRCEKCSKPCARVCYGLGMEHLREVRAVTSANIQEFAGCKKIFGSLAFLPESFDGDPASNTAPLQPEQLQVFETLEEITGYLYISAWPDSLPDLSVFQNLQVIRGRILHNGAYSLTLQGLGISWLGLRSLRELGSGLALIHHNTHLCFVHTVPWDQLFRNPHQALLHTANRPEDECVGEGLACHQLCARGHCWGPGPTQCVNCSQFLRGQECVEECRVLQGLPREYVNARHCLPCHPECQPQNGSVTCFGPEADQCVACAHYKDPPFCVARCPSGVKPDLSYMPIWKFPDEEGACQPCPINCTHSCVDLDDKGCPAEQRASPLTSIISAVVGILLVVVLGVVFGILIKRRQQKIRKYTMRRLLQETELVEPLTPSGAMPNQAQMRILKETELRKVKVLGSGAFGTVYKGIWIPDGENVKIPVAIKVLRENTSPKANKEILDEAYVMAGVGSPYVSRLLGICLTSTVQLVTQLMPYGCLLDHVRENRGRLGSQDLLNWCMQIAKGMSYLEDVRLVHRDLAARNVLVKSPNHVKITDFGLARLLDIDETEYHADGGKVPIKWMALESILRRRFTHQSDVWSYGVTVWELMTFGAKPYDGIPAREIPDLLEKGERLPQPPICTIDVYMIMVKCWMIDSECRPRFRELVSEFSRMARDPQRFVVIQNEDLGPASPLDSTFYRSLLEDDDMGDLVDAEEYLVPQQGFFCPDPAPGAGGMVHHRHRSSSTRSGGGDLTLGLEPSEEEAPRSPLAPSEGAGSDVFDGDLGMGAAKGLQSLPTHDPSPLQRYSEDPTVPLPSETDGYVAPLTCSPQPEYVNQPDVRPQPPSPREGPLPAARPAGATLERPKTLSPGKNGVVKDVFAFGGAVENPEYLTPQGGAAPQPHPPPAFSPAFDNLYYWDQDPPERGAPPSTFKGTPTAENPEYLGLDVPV
T1 sequence (Q00535 whole entry): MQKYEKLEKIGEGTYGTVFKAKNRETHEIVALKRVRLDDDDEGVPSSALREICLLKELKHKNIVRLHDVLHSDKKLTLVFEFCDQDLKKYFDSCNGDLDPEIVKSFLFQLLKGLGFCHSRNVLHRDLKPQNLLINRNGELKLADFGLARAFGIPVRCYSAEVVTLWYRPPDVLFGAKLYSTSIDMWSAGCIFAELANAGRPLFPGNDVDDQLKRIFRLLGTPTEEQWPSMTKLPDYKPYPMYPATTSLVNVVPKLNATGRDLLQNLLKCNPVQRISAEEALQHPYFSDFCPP

With `Clc1cc(NCC2CC2)c2ncc(-c3ccc4[nH]ncc4c3)n2n1` [compound 2, 6-Chloro-N-(cyclopropylmethyl)-3-(1H-indazol-5-yl)imidazo[1,2-b]pyridazin-8-amine], the remaining binding at 1 µM in experiment [1] was 100%; in experiment [2], 100%; in experiment [3], 95%; in experiment [4], 91%; in experiment [5], 74%; in experiment [6], 84%. Also, the remaining binding at 1 µM in experiment [7] was found to be 87%; in experiment [8] it was 86%; in [9], 89%; in experiment [10], 100%.

For the compound `O=C(CN1CCOCC1)N[C@H]1CC[C@H](Nc2cc(Cl)nn3c(-c4ccc5[nH]ncc5c4)cnc23)CC1` [compound 26], the remaining binding at 1 µM in experiment [1] was determined as 92%; in experiment [2] it was 97%; in experiment [3], 83%; in experiment [4], 99%; in [5] it was 100%; in experiment [6], 92%. The remaining binding at 1 µM in experiment [7] amounted to 99%; in experiment [8] it was 97%; in experiment [9], 19%; in experiment [10] it was 92%.

With `CN1CCC(CNc2cc(Cl)nn3c(-c4cc5nc(Nc6ccccc6)[nH]c5cc4F)cnc23)CC1` [compound 31, 6-Chloro-3-(6-fluoro-2-(phenylamino)-1H-benzo[d]imidazol-5-yl)-N-((1-methylpiperidin-4-yl)methyl)imidazo[1,2-b]pyridazin-8-amine], the remaining binding at 1 µM is 99% in [1]; 84% in experiment [2]; 100% in experiment [3]; 100% in [4]; 62% in experiment [5]; 96% in [6]. Besides, the remaining binding at 1 µM in [7] is 96%; in experiment [8] it was 100%; in [9], 96%; in experiment [10], 88%.
